{"source": "patent US20250375430A1", "about": "“USE OF DIHYDROBERBERINE TO PROMOTE RECRUITMENT AND ACTIVATION OF BROWN ADIPOSE TISSUES” (NANJING NUTRABUILDING BIO-TECH CO., LTD., priority 2023, published 2025)", "key": {"obese db/db mice": {"tested_on": "obese db/db mice", "settings": "cited from earlier work"}, "brown adipocyte": {"tested_on": "brown adipocyte", "settings": "by increasing transcription of PRDM16 via AMPK activation and PGC-1α recruitment; cited from earlier work"}, "C57BL/6J mice [1]": {"tested_on": "C57BL/6J mice", "assay": "Plasma TC, TG, LDL, VLDL measured with kits in high-fat diet mice", "assay_type": "in vivo", "description": "Six-week-old male C57BL/6J mice were housed in a temperature-and relative humidity-controlled room (22±2° C., 55±5%) with a 12 h light-dark cycle and free access to food and water. For chronic anti-obesity studies, all mice were fed the high-fat diet (HFD, 60% calories from fat, 20% calories from protein, 20% calories from carbohydrate) for 8 weeks. At 14 weeks of age, all mice were randomly divided into 3 groups of 10 animals: (1) non-supplement group (Con Food only, Group 1); (2) DHB supplement group (DHB+Food. 50 mg/kg, Group 2); (3) DHB supplement group (DHB+Food, 100 mg/kg, Group 3). After an eight-week induction, the mice in group I were intraperitoneal injection (i.p.) administrated with normal saline between 9:30 and 11:30 am, and food and water were given ad libitum. The mice in group 2 and group 3 were intraperitoneal injection (i.p.) administrated with DHB in normal saline solution daily for 6 weeks between 9:30 and 11:30 am, and food and water were given ad libitum. The total experimental time is 14 weeks, including two periods: an eight-week induction period and a subsequent six-week supplement period. Plasma total cholesterol (TC), triglyceride (TG), low-density lipoprotein (LDL), and very low-density lipoprotein (VLDL) were measured using corresponding kits according to the manufacturers' instructions."}, "C57BL/6J mice [2]": {"tested_on": "C57BL/6J mice", "assay": "i.p. glucose tolerance test (GTT) in obese mice", "assay_type": "in vivo", "settings": "4th week of supplementation; glucose 0.75 g/kg i.p.; 0-120 min; especially higher dose; FIG. 5", "description": "(§1) Six-week-old male C57BL/6J mice were housed in a temperature-and relative humidity-controlled room (22±2° C., 55±5%) with a 12 h light-dark cycle and free access to food and water. For chronic anti-obesity studies, all mice were fed the high-fat diet (HFD, 60% calories from fat, 20% calories from protein, 20% calories from carbohydrate) for 8 weeks. At 14 weeks of age, all mice were randomly divided into 3 groups of 10 animals: (1) non-supplement group (Con Food only, Group 1); (2) DHB supplement group (DHB+Food. 50 mg/kg, Group 2); (3) DHB supplement group (DHB+Food, 100 mg/kg, Group 3). The mice in group 2 and group 3 were intraperitoneal injection (i.p.) administrated with DHB in normal saline solution daily for 6 weeks between 9:30 and 11:30 am, and food and water were given ad libitum."}, "C57BL/6J mice [3]": {"tested_on": "C57BL/6J mice", "assay": "Insulin tolerance test (ITT)", "assay_type": "in vivo", "settings": "FIG. 6", "description": "as §1, with “libitum. An insulin tolerance test (ITT) was performed by using a glucose analyzer in the 6-h fasting mice in the 5th week of the supplementation. The glucose concentrations were measured by venous bleeding at 0, 15, 30, 60 and 120 min after an i.p. injection of human insulin at 1 U/kg.” for “libitum.”"}, "C57BL/6J mice [4]": {"tested_on": "C57BL/6J mice", "assay": "Body weight and fat mass by nuclear magnetic resonance body composition analyzer", "assay_type": "in vivo", "description": "as §1, with “libitum. The body weight and fat mass of all mice were performed by the nuclear magnetic resonance body composition analyzer by Nuclear Magnetic Resonance Body Composition Analyzer in accordance with manufacturer's instruction. The body weight and fat mass were tested weekly (9-14 weeks) and at 9th and 14th week before supplementation and feeding, respectively.” for “libitum.”"}, "UCP1 and PGC-1α": {"tested_on": "UCP1 and PGC-1α", "assay": "mRNA levels of brown fat-enriched genes in adipose tissues (inguinal WAT) by real-time PCR", "assay_type": "in vivo, mice", "description": "Six-week-old male C57BL/6J mice were housed in a temperature-and relative humidity-controlled room (22±2° C., 55±5%) with a 12 h light-dark cycle and free access to food and water. For chronic anti-obesity studies, all mice were fed the high-fat diet (HFD, 60% calories from fat, 20% calories from protein, 20% calories from carbohydrate) for 8 weeks.\nAt 14 weeks of age, all mice were randomly divided into 3 groups of 10 animals: (1) non-supplement group (Con Food only, Group 1); (2) DHB supplement group (DHB+Food. 50 mg/kg, Group 2); (3) DHB supplement group (DHB+Food, 100 mg/kg, Group 3).\nThe mice in group 2 and group 3 were intraperitoneal injection (i.p.) administrated with DHB in normal saline solution daily for 6 weeks between 9:30 and 11:30 am, and food and water were given ad libitum.\nAt the end of the study, all mice were anesthetized with chloral hydrate, all relevant tissues like inguinal and perirenal adipose were dissected, weighed, immediately frozen in liquid nitrogen, and stored at −80° C.\nThe mRNA levels of brown fat-enriched genes such as UCP1 and PGC-1α from adipose tissues (like inguinal WAT) were determined by real-time PCR analysis."}, "UCP1, PRDM16 and PGC-1α": {"tested_on": "UCP1, PRDM16 and PGC-1α", "assay": "Expression levels of UCP1, PRDM16 and PGC-1α (FIG. 10)", "assay_type": "in vivo", "settings": "relative to mice without DHB", "description": "as §1"}, "C57BL/6J mice [5]": {"tested_on": "C57BL/6J mice", "assay": "Energy expenditure by comprehensive lab animal monitoring system (CLAMS), indirect calorimeter", "assay_type": "in vivo", "description": "Six-week-old male C57BL/6J mice were housed in a temperature-and relative humidity-controlled room (22±2° C., 55±5%) with a 12 h light-dark cycle and free access to food and water. For chronic anti-obesity studies, all mice were fed the high-fat diet (HFD, 60% calories from fat, 20% calories from protein, 20% calories from carbohydrate) for 8 weeks. At 14 weeks of age, all mice were randomly divided into 3 groups of 10 animals: (1) non-supplement group (Con Food only, Group 1); (2) DHB supplement group (DHB+Food. 50 mg/kg, Group 2); (3) DHB supplement group (DHB+Food, 100 mg/kg, Group 3). The mice in group 2 and group 3 were intraperitoneal injection (i.p.) administrated with DHB in normal saline solution daily for 6 weeks between 9:30 and 11:30 am, and food and water were given ad libitum. A key factor for controlling energy homoeostasis is the balance between caloric intake and energy expenditure. We analyzed the actions of DHB on energy expenditure using comprehensive lab animal monitoring system (CLAMS). Metabolic analysis was conducted between 8:30 am and 7:30 pm at the last week of experiment to identify […]. O2 consumption, CO2 production, and locomotor activity were measured using a 16-chamber indirect calorimeter. The mice were acclimated to the system for 20-24 h, and measurement of VO2 and VCO2 was performed during the next 24 h. The mice were maintained at 24° C. under a 12 h light/dark cycle. Food and water were available ad libitum. Voluntary activity was derived from the x-axis beam breaks monitored every 15 min. Heat production (energy expenditure) was calculated using the following equation: [formula] where heat is measured in kcal h^−1, VO2 is measured in litres kg^−1 h^−1 and body weight is measured in kg."}, "BAT": {"tested_on": "BAT", "assay": "18F-FDG uptake in BAT by PET/CT", "assay_type": "in vivo, mice", "settings": "PET/CT 60 min after tracer; fasted overnight; FIG. 14", "description": "as §1, with “libitum. […] [formula]” for “libitum.”"}, "C57BL/6J mice [6]": {"tested_on": "C57BL/6J mice", "assay": "Rectal temperature in the cold room", "assay_type": "in vivo", "settings": "cold room 4-8° C.; 9th and 14th week; FIG. 15", "description": "as §1"}, "[7]": {"settings": "in vitro; cited from earlier work"}, "[8]": {"settings": "mice, including mice lacking intestinal bacteria needed to break down BBR; cited from earlier work"}, "[9]": {"settings": "100 mg/kg compared with 50 mg/kg"}, "[10]": {"settings": "adipose tissue (inguinal WAT), real-time PCR, relative to mice without DHB, FIG. 9"}}, "data": [{"smiles": "COc1ccc2cc3[n+](cc2c1OC)CCc1cc2c(cc1-3)OCO2", "note": "[BBR, berberine]", "values": [{"measurement": "energy expenditure and adaptive thermogenesis", "setting": "obese db/db mice", "value": "increase"}, {"measurement": "thermogenic program in BAT", "setting": "obese db/db mice", "value": "promote the thermogenic program in BAT"}, {"measurement": "weight gain", "setting": "obese db/db mice", "value": "reduce weight gain"}, {"measurement": "brown adipocyte differentiation and BAT thermogenesis", "setting": "brown adipocyte", "value": "promote"}]}, {"smiles": "COc1ccc2c(c1OC)CN1CCc3cc4c(cc3C1=C2)OCO4", "note": "[DHB, dihydroberberine]", "values": [{"measurement": "improving biomarkers related to lipid mobilization, higher dose than lower dose", "setting": "C57BL/6J mice [1]; [9]", "value": "greater effects"}, {"measurement": "TG level", "setting": "C57BL/6J mice [1]; plasma, HFD mice, DHB i.p. 50 or 100 mg/kg daily for 6 weeks, relative to mice without DHB, FIG. 1", "value": "lower levels"}, {"measurement": "TC level", "setting": "C57BL/6J mice [1]; plasma, HFD mice, DHB i.p. 50 or 100 mg/kg daily for 6 weeks, relative to mice without DHB, FIG. 2", "value": "lower levels"}, {"measurement": "LDL level", "setting": "C57BL/6J mice [1]; plasma, HFD mice, DHB i.p. 50 or 100 mg/kg daily for 6 weeks, relative to mice without DHB, FIG. 3", "value": "lower levels"}, {"measurement": "VLDL level", "setting": "C57BL/6J mice [1]; plasma, HFD mice, DHB i.p. 50 or 100 mg/kg daily for 6 weeks, relative to mice without DHB, FIG. 4", "value": "lower levels"}, {"measurement": "tolerance to a glucose load (i.p. glucose tolerance test)", "setting": "C57BL/6J mice [2]", "value": "better tolerance to a glucose load"}, {"measurement": "insulin tolerance test result, higher-dose group", "setting": "C57BL/6J mice [3]; [9]", "value": "better result"}, {"measurement": "insulin tolerance test result", "setting": "C57BL/6J mice [3]; 5th week of supplementation, 6-h fasting, human insulin 1 U/kg i.p.", "value": "ameliorated glucose tolerance"}, {"measurement": "body weight (weight gain)", "setting": "C57BL/6J mice [4]; group 2 and 3 (50 and 100 mg/kg), 6 weeks of treatment, week 9 to 14, FIG. 7", "value": "obviously protected from weight gain"}, {"measurement": "fat mass percentage (fat accumulation)", "setting": "C57BL/6J mice [4]; group 3 (100 mg/kg), 9th and 14th week, FIG. 8", "value": "inhibited fat accumulation better"}, {"measurement": "body fat percentage", "setting": "C57BL/6J mice [4]; relative to mice without DHB supplementation", "value": "decreases body fat percentage"}, {"measurement": "browning of white fat, higher dose than lower dose", "setting": "UCP1 and PGC-1α; [9]", "value": "greater effects"}, {"measurement": "PGC-1α mRNA level", "setting": "UCP1 and PGC-1α; [10]", "value": "higher levels"}, {"measurement": "UCP1 mRNA level", "setting": "UCP1 and PGC-1α; [10]", "value": "higher levels"}, {"measurement": "expression of PGC-1α", "setting": "UCP1, PRDM16 and PGC-1α", "value": "increase the expression"}, {"measurement": "expression of PRDM16", "setting": "UCP1, PRDM16 and PGC-1α", "value": "increase the expression"}, {"measurement": "expression of UCP1", "setting": "UCP1, PRDM16 and PGC-1α", "value": "increase the expression"}, {"measurement": "BAT thermogenesis and energy expenditure, higher dose than lower dose", "setting": "C57BL/6J mice [5]; [9]", "value": "greater effects"}, {"measurement": "BAT thermogenesis and energy expenditure", "setting": "C57BL/6J mice [5]; 24 h period, FIG. 13", "value": "beneficial effects"}, {"measurement": "oxygen consumption (VO2) rate", "setting": "C57BL/6J mice [5]; through a 12-h light/dark cycle, 24 h period, 24° C., FIG. 11", "value": "markedly higher"}, {"measurement": "carbon dioxide production (VCO2) rate", "setting": "C57BL/6J mice [5]; through a 12-h light/dark cycle, 24 h period, 24° C., FIG. 12", "value": "markedly higher"}, {"measurement": "total accumulated amount of 18F-FDG in BAT", "setting": "BAT", "value": "increase the accumulated amount"}, {"measurement": "rectal temperature", "setting": "C57BL/6J mice [6]", "value": "higher"}, {"measurement": "intestinal absorption rate relative to BBR", "setting": "[7]", "value": "five times higher"}, {"measurement": "absorption relative to BBR", "setting": "[8]", "value": "better absorbed"}]}]}
